Earlier results on 1 compound are cited in patent US8524772B2, “Controlled release of N-acetylcysteine (NAC) for reduction of systemic and/or vascular inflammation” (Tiara Pharmaceuticals, Inc., priority 2008, dated 2013).

The test system of one data set is LDL. The settings on record: in vitro.
The test system of data set [1] is lipid loaded macrophages (foam cells).

Consider `CC(=O)NC(CS)C(=O)O` (stereo not drawn) [NAC, 2-acetamido-3-sulfanylpropanoic acid], for which, in the data set on LDL, the “oxidative modification of LDL” value is “inhibited” and the “secondary oxidation of LDL by previously oxidized LDL” value is “markedly inhibited”. The “ability of foam cells to degrade vascular matrix” value in data set [1] was “reduce”.
